Data from patent publication US11667945B2, “Detection method and detection probe for colibactin and colibactin-producing bacteria” (priority 2017, dated 2023).
Where a SMILES comes first, the peptide text is derived from it. [ ]: non-standard residue; d: D form. The star is where a group is joined. Myristoyl = CCCCCCCCCCCCCC(=O)*; AMC = Cc1cc(=O)oc2cc(N*)ccc12

Columns and labels:
[1] = system: colibactin positive bacterium; experiment: Detection of colibactin positive bacterium using cultured fecal samples (Example 6); type: cell-based, Escherichia coli; details: colonies from human fecal samples, LB with 100 μM probe, 24 hours, λex 380 mm/λem 460 mm, compared with PCR
Protocol: Fecal samples obtained from human subjects were dissolved in water, applied to a plate comprising a MacConkey medium and cultured at 37° C. for 12 hours. The resultant red-purple colony was picked up, inoculated in LB liquid medium comprising 100 μM probe I and cultured for 24 hours. Fluorescence (λex 380 mm/λem 460 mm) was measured by a plate reader. These samples were checked for the presence or absence of a colibactin positive bacterium by a PCR method in the same manner as in Example 5 and the correlation with the fluorescence intensity generated from probe I was examined.

[2] = system: colibactin positive bacterium; experiment: Detection of colibactin positive bacterium among Escherichia coli separated from colorectal tissue samples (Example 5); type: cell-based; details: 100 μM probe in LB, 37° C., 24 hours, threshold 100; 100 PCR-positive and 100 PCR-negative samples
From the text: In this Example, detection of a colibactin positive bacterium was tried by applying probe I to Escherichia coli bacteria separated from colon tissue samples (n=100) in which colibactin biosynthetic genes had been detected by PCR methods and colon tissue samples (n=100) in which colibactin biosynthetic genes had not been detected.
Escherichia coli bacteria were separated by homogenizing a human colorectal tissue sample with physiological saline and smearing the homogenized sample onto a MacConkey plate medium, and culturing it. […] Based on the presence or absence of an amplified fragment as an index, a colibactin positive bacterium or not was evaluated.
To evaluate the sensitivity and accuracy for detecting a colibactin positive bacterium by probe I, 100 Escherichia coli bacterium samples were prepared by separating Escherichia coli bacterium from colon tissue samples in which a colibactin positive bacterium was detected by the above PCR method; and 100 Escherichia coli bacterium samples separated were prepared by separating Escherichia coli bacterium from colon tissue samples in which a colibactin positive bacterium was not detected by the above PCR method. […] Measurement at λex 380 mm/λem 460 mm was carried out by a plate reader. The difference in fluorescence intensity between assay A and assay B (background) was obtained and the threshold was determined as 100. […]

[3] = system: enzyme encoded by ClbP gene; experiment: Detection of ClbP enzyme / colibactin-producing E. coli in lyophilized fecal samples by fluorescent probe (Example 3); type: biochemical, Escherichia coli; details: probe 20 μM, lyophilized human feces suspended in milliQ water, 37° C., 24 hours or more, after extraction and unextracted
Protocol: The feces samples (obtained from different 4 human subjects) lyophilized were each scooped 10 times by a spoon (about 40 mg) and suspended in milliQ water (200 μl). To the suspension, the 20 mM DMSO solution of probe 1 was added so as to obtain a final concentration of 20 μM (DMSO final concentration 0.1%). Thereafter, the suspension was shaken at 37° C. and 100 rpm for 24 hours or more. After the reaction, the reaction solution (200 μLS) was taken and centrifuged. The supernatant (200 μL) was directly subjected to detection performed at λex380 mm/λem460 mm (unextracted). The reaction solution (200 μL) was newly taken, sufficiently suspended by adding ethyl acetate (500 μL) and centrifuged. The ethyl acetate layer (450 μL) of the supernatant was collected and concentrated. To the concentrate, milliQ water (200 μL) was added. The mixture was sufficiently suspended and centrifuged. The supernatant (200 μL) was subjected to detection performed at λex380 mm/λem460 mm (after extraction). In FIG. 2, the detection results of 4 fecal samples are shown separately by “feces is present_1” to “feces is present_4”, respectively.

[4] = system: colibactin-producing Escherichia coli; experiment: Assay using cultured Escherichia coli, colibactin-producing versus non-producing strains (Example 4); type: cell-based; details: probe 20 μM in LB medium, 37° C., 24 hours or more, particularly after extraction; producers 5263, 5491, Nissle vs non-producers 1246, 1649T
Protocol: As Escherichia coli not producing colibactin, 1246 strain and 1649T strain were used. As the colibactin-producing Escherichia coli, 5263 strain, 5491 strain and Nissle strain were used.
Escherichia coli were cultured overnight and seeded (20 μL) in LB medium (2 to 4 mL) and further a 20 mM DMSO solution of probe 1 was added thereto so as to obtain a final concentration of 20 μM (DMSO final concentration: 0.1%), and cultured at 37° C. and 100 rpm for 24 hours or more while shaking. After reaction, the reaction solution (200 μL) was taken and centrifuged. The supernatant (200 μL) was directly subjected to detection performed at λex 380 mm/λem 460 mm (unextracted). The reaction solution (200 μL) was newly taken and ethyl acetate (500 μL) was added thereto. After sufficiently suspended, the suspension was centrifuged. The ethyl acetate layer (450 μL) of the supernatant was recovered and concentrated. To the concentrate, milliQ water (200 μL) was added. The mixture was sufficiently suspended and centrifuged. The supernatant (200 μL) was subjected to detection (after extraction) performed at λex 380 mm/λem 460 mm.

Row | Compound | detection of colibactin positive bacterium present in fecal samples [1] | accuracy of detecting a colibactin positive bacterium [2] | false positive rate (a rate determining a negative bacterium as a positive bacterium) [2] | fluorescence of the probe on contact with feces (ClbP dependent cleavage to AMC) [3] | detection of colibactin-producing Escherichia coli based on the fluorescence intensity of the probe [4]
1 | CCCCCCCCCCCCCC(=O)NC(CC(N)=O)C(=O)Nc1ccc2c(C)cc(=O)oc2c1 (stereo not drawn) [probe 1] | highly sensitively and accurately detected | 100% | less than 1% | fluorescence was regained | colibactin-producing Escherichia coli can be detected
2 | CCCCCCCCCCCCCC(=O)N[C@H](CC(N)=O)C(=O)N[C@@H](C)C(=O)Nc1ccc2c(C)cc(=O)oc2c1 [probe 2] (Myristoyl-[dN]-Ala-{AMC}) | – | – | – | same results | –
